What follows are molecules tested against T1, KRAS G12C 1-169, his-tagged protein, GDP-loaded (Homo sapiens, UniProt P01116, G12C) (assay: Biochemical assay: covalent modification of KRAS G12C measured by mass spectrometry (RapidFire/TOF or Q-Exactive)). Conditions: covalent binding to (modification of) KRAS G12C after a ten minute incubation period.
T1 construct: KRAS G12C 1-169, his-tagged protein, GDP-loaded
Type: binding
In short: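 Intact-mass readout (TOF or Q-Exactive, charge-envelope deconvolution) gives percent covalent adduct from modified and unmodified species. Compound at 10, 30 or 100 μM was incubated at room temperature for 10 min to 24 h with 2 μM or 0.5 μM GDP-bound KRAS G12C 1-169 in Hepes/NaCl/MgCl2 buffer, then acid-quenched.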

SMILES	Binding %
C=CC(=O)N1C[C@@H](C)N(c2nc(N3CC(N(C)C)C3)nc3c(F)c(-c4c(C)ccc5[nH]nc(C6CC6)c45)c(Cl)cc23)C[C@H]1C (atropisomer, axis not shown) [Compound 251, 1-((2R,5R)-4-((R)-6-chloro-7-(3-cyclopropyl-5-methyl-1H-indazol-4-yl)-2-(3-(dimethylamino)azetidin-1-yl)-8-fluoroquinazolin-4-yl)-2,5-dimethylpiperazin-1-yl)prop-2-en-1-one]	+++ (+++ indicates binding activity greater than 80%)
C=CC(=O)N1C[C@H](C)N(c2nc(OCCN3CC(F)(F)C3)nc3c(F)c(-c4c(C)ccc5[nH]nc(C6CC6)c45)c(Cl)cc23)C[C@H]1C (atropisomer, axis not shown) [Compound 121, 1-((2R,5S)-4-((S)-6-chloro-7-(3-cyclopropyl-5-methyl-1H-indazol-4-yl)-2-(2-(3,3-difluoroazetidin-1-yl)ethoxy)-8-fluoroquinazolin-4-yl)-2,5-dimethylpiperazin-1-yl)prop-2-en-1-one]	+ (+ indicates binding activity greater than 0% and up to 50%)
C=CC(=O)N1C[C@H](C)N(c2nc(C#CCN(C)C)nc3c(F)c(-c4c(C)ccc5[nH]nc(C6CC6)c45)c(Cl)cc23)C[C@H]1C [Compound 240, 1-((2R,5S)-4-(6-chloro-7-(3-cyclopropyl-5-methyl-1H-indazol-4-yl)-2-(3-(dimethylamino)prop-1-ylnyl)-8-fluoroquinazolin-4-yl)-2,5-dimethylpiperazin-1-yl)prop-2-en-1-one]	+ (+ indicates binding activity greater than 0% and up to 50%)
C=CS(=O)(=O)N1C[C@H](C)N(c2nc(N3CC(N(C)C)C3)nc3c(F)c(-c4c(C)ccc5cnn(C)c45)c(Cl)cc23)C[C@H]1C [Compound 191, 1-(6-chloro-7-(1,6-dimethyl-1H-indazol-7-yl)-4-((2S,5R)-2,5-dimethyl-4-(vinylsulfonyl)piperazin-1-yl)-8-fluoroquinazolin-2-yl)-N,N-dimethylazetidin-3-amine]	+ (+ indicates binding activity greater than 0% and up to 50%)
C=CC(=O)N1C[C@H](C)N(c2nc(N3CC(N(C)C)C3)nc3c(F)c(-c4cccc5c4N(C)C(=O)C5)c(Cl)cc23)C[C@H]1C [Compound 262, 7-(4-((2S,5R)-4-acryloyl-2,5-dimethylpiperazin-1-yl)-6-chloro-2-(3-(dimethylamino)azetidin-1-yl)-8-fluoroquinazolin-7-yl)-1-methylindolin-2-one]	+ (+ indicates binding activity greater than 0% and up to 50%)
C=CC(=O)N1C[C@H](C)N(c2nc(N3CC(N(C)C)C3)nc3c(F)c(-c4c(C)ccc5c4NC(=O)C5)c(Cl)cc23)C[C@H]1C [Compound 263, 7-(4-((2S,5R)-4-acryloyl-2,5-dimethylpiperazin-1-yl)-6-chloro-2-(3-(dimethylamino)azetidin-1-yl)-8-fluoroquinazolin-7-yl)-6-methylindolin-2-one]	+ (+ indicates binding activity greater than 0% and up to 50%)
C=CC(=O)N1C[C@H](C)N(c2nc(N3CC(N(C)C)C3)nc3c(F)c(-c4c(C)ccc5[nH]nc(NC(C)C)c45)c(Cl)cc23)C[C@H]1C [Compound 39, 1-((2R,5S)-4-(6-chloro-2-(3-(dimethylamino)azetidin-1-yl)-8-fluoro-7-(3-(isopropylamino)-5-methyl-1H-indazol-4-yl)quinazolin-4-yl)-2,5-dimethylpiperazin-1-yl)prop-2-en-1-one]	+ (+ indicates binding activity greater than 0% and up to 50%)
C=CC(=O)N1C[C@H](C)N(c2nc(N3CC(N(C)C)C3)nc3c(F)c(-c4c(C)ccc5[nH]nc(C)c45)c(Cl)cc23)C[C@H]1C (atropisomer, axis not shown) [Compound 98, 1-((2R,5S)-4-((R)-6-chloro-7-(3,5-dimethyl-1H-indazol-4-yl)-2-(3-(dimethylamino)azetidin-1-yl)-8-fluoroquinazolin-4-yl)-2,5-dimethylpiperazin-1-yl)prop-2-en-1-one]	+++ (+++ indicates binding activity greater than 80%)
C=CC(=O)N1C[C@H](C)N(c2nc(OCCCN(CC)CC)nc3c(F)c(-c4c(C)ccc5[nH]nc(N)c45)c(Cl)cc23)C[C@H]1C [Compound 69, 1-((2R,5S)-4-(7-(3-amino-5-methyl-1H-indazol-4-yl)-6-chloro-2-(3-(diethylamino)propoxy)-8-fluoroquinazolin-4-yl)-2,5-dimethylpiperazin-1-yl)prop-2-en-1-one]	+++ (+++ indicates binding activity greater than 80%)
C=CC(=O)N1C[C@H](C)N(c2nc(NC(=O)CN(C)C)nc3c(F)c(-c4c(C)ccc5cnn(C)c45)c(Cl)cc23)C[C@H]1C [Compound 260, N-(4-((2S,5R)-4-acryloyl-2,5-dimethylpiperazin-1-yl)-6-chloro-7-(1,6-dimethyl-1H-indazol-7-yl)-8-fluoroquinazolin-2-yl)-2-(dimethylamino)aceta-mide]	+++ (+++ indicates binding activity greater than 80%)
C=CC(=O)N1C[C@H](C)N(c2nc(OC[C@@H]3CN(C)CCO3)nc3c(F)c(-c4c(C)ccc5[nH]nc(C)c45)c(Cl)cc23)C[C@H]1C [Compound 188, 1-((2R,5S)-4-(6-chloro-7-(3,5-dimethyl-1H-indazol-4-yl)-8-fluoro-2-(((S)-4-methylmorpholin-2-yl)methoxy)quinazolin-4-yl)-2,5-dimethylpiperazin-1-yl)prop-2-en-1-one]	+++ (+++ indicates binding activity greater than 80%)
C=CC(=O)N1C[C@H](C)N(c2nc(N3CC(N(C)C)C3)nc3c(F)c(-c4c(C)ccc5[nH]nc(N(C)C)c45)c(Cl)cc23)C[C@H]1C [Compound 42, 1-((2R,5S)-4-(6-chloro-7-(3-(dimethylamino)-5-methyl-1H-indazol-4-yl)-2-(3-(dimethylamino)azetidin-1-yl)-8-fluoroquinazolin-4-yl)-2,5-dimethylpiperazin-1-yl)prop-2-en-1-one]	+ (+ indicates binding activity greater than 0% and up to 50%)
C=CC(=O)N1C[C@H](C)N(c2nc(OC[C@H]3COCCN3C)nc3c(F)c(-c4c(C)ccc5[nH]nc(C)c45)c(Cl)cc23)C[C@H]1C [Compound 181, 1-((2R,5S)-4-(6-chloro-7-(3,5-dimethyl-1H-indazol-4-yl)-8-fluoro-2-(((R)-4-methylmorpholin-3-yl)methoxy)quinazolin-4-yl)-2,5-dimethylpiperazin-1-yl)prop-2-en-1-one]	+ (+ indicates binding activity greater than 0% and up to 50%)
C=CC(=O)N1C[C@H](C)N(c2nc(OC[C@@H]3CCCN3C)nc3c(F)c(-c4c(C)ccc5[nH]nc(C6CC6)c45)c(Cl)cc23)C[C@H]1C (atropisomer, axis not shown) [Compound 228, 1-((2R,5S)-4-((R)-6-chloro-7-(3-cyclopropyl-5-methyl-1H-indazol-4-yl)-8-fluoro-2-(((S)-1-methylpyrrolidin-2-yl)methoxy)quinazolin-4-yl)-2,5-dimethylpiperazin-1-yl)prop-2-en-1-one]	+++ (+++ indicates binding activity greater than 80%)
C=CC(=O)N1C[C@H](C)N(c2nc(N3CC(N(C)C)C3)nc3c(F)c(-c4c(C)ccc5[nH]nc(C)c45)c(C(F)(F)F)cc23)C[C@H]1C [Compound 192, 1-((2R,5S)-4-(7-(3,5-dimethyl-1H-indazol-4-yl)-2-(3-(dimethylamino)azetidin-1-yl)-8-fluoro-6-(trifluoromethyl)quina-zolin-4-yl)-2,5-dimethylpiperazin-1-yl)prop-2-en-1-one]	+++ (+++ indicates binding activity greater than 80%)
C=CC(=O)N1C[C@H](C)N(c2nc(N3CC(N(C)C)C3)nc3c(F)c(-c4c(C)ccc5[nH]nc(C)c45)c(Cl)cc23)C[C@H]1C [Compound 107, 1-((2R,5S)-4-(6-chloro-7-(3,5-dimethyl-1H-indazol-4-yl)-2-(3-(dimethylamino)azetidin-1-yl)-8-fluoroquinazolin-4-yl)-2,5-dimethylpiperazin-1-yl)prop-2-en-1-one]	+ (+ indicates binding activity greater than 0% and up to 50%)
C=CC(=O)N1C[C@H](C)N(c2nc(NC3CCN(C4CC4)CC3)nc3c(F)c(-c4c(C)ccc5[nH]nc(N)c45)c(Cl)cc23)C[C@H]1C [Compound 80, 1-((2R,5S)-4-(7-(3-amino-5-methyl-1H-indazol-4-yl)-6-chloro-2-(1-cyclopropylpiperidin-4-ylamino)-8-fluoroquinazolin-4-yl)-2,5-dimethylpiperazin-1-yl)prop-2-en-1-one]	+++ (+++ indicates binding activity greater than 80%)
C=CC(=O)N1C[C@@H](C)N(c2nc(N3CC(N(C)C)C3)nc3c(F)c(-c4c(C)ccc5cnn(C)c45)c(Cl)cc23)C[C@H]1C (atropisomer, axis not shown) [Compound 242, 1-((2R,5R)-4-((S)-6-chloro-7-(1,6-dimethyl-1H-indazol-7-yl)-2-(3-(dimethylamino)azetidin-1-yl)-8-fluoroquinazolin-4-yl)-2,5-dimethylpiperazin-1-yl)prop-2-en-1-one]	+ (+ indicates binding activity greater than 0% and up to 50%)
C=CC(=O)N1C[C@H](C)N(c2nc(OC[C@@H]3COCCN3C)nc3c(F)c(-c4c(C)ccc5cnn(C)c45)c(Cl)cc23)C[C@H]1C [Compound 182, 1-((2R,5S)-4-(6-chloro-7-(1,6-dimethyl-1H-indazol-7-yl)-8-fluoro-2-(((S)-4-methylmorpholin-3-yl)methoxy)quinazolin-4-yl)-2,5-dimethylpiperazin-1-yl)prop-2-en-1-one]	++ (++ indicates binding activity from 50 to 80%)
C=CC(=O)N1C[C@H](C)N(c2nc(OC3CC(N(C)C)C3)nc3c(F)c(-c4c(C)ccc5[nH]ncc45)c(Cl)cc23)C[C@H]1C (stereo partly drawn) [Compound 264, 1-((2R,5S)-4-(6-chloro-2-(3-(dimethylamino)cyclo-butoxy)-8-fluoro-7-(5-methyl-1H-indazol-4-yl)quinazolin-4-yl)-2,5-dimethylpiperazin-1-yl)prop-2-en-1-one]	+++ (+++ indicates binding activity greater than 80%)
